Test results from US20100298557A1, “PYRAZOLOPYRIMIDINE COMPOUND” (Taisho Pharmaceutical Co., Ltd, priority 2006, published 2010).

Columns and labels:
[1] = tested on: Human mast cell line LAD cells; test: Degranulation test using human mast cell line LAD cells; assay type: cell-based; conditions: IgE-sensitized LAD cells, anti-human IgE stimulation, β-hexosaminidase release, read-out: degranulation inhibitory activity IC50
Procedure: Human mast cell line LAD cells were sensitized with human IgE (Cosmo Bio; final concentration 1 μg/ml) overnight. The cells were harvested, and then washed with PBS (Invitrogen) and washed again with Tyrode's buffer solution (Sigma) containing 0.1% BSA (Sigma). The cells were seeded into a 96-well plate at 10^5 cells/well and then the compound (0.1% final concentration DMSO solution) was added, followed by incubation at 37° C. for 15 minutes. Rabbit anti-human IgE (Dako Japan; final concentration 10 μg/ml) or control Ig (Dako Japan; final concentration 10 μg/ml) was added, followed by incubation at 37° C. for 30 minutes. The supernatant was recovered and p-nitrophenyl-2-acetamido-2-deoxy-β-D-glucopyranoside (Sigma; final concentration 4 mM), a substrate of β-hexosaminidase which is an index of degranulation, was added, followed by incubation at 37° C. for 45 minutes. Glycine (Wako; final concentration 0.2 M, pH 10.4) was added and the reaction was terminated. Then, the absorbance at 405 nm was measured.
The inhibition rate (%) was calculated as (anti-IgE antibody degranulation rate—compound-added group degranulation rate)/(anti-IgE antibody degranulation rate—control antibody degranulation rate)×100. The IC50 value was calculated from the inhibition rate at each concentration and used as an index of inhibitory activity.

[2] = target: T1, Abl (Homo sapiens, UniProt P00519); test: Abl inhibition test; assay type: biochemical; conditions: Abltide substrate, ATP 6 μM, [γ-33P]ATP, 40 minutes room temperature; read-out: Abl inhibitory activity IC50
T1 construct: purchased Wako Pure Chemical Industries
Procedure: 5 ng/5 μl/well of an Abl (Wako Pure Chemical Industries) solution, 30 μl of an Abltide substrate peptide solution (Wako Pure Chemical Industries; final concentration 5 μM) and 5 μl of a test substance solution were added to a 96-well plate (Corning), followed by incubation at room temperature for 15 minutes. Then, 10 μl of an ATP mixture (ATP: Oriental Yeast, final concentration 6 μM, [γ-33P]ATP: GE Healthcare Biosciences, 0.06 μCi/well, MgAcetate: Cosmo Bio, final concentration 10 mM) was added, followed by incubation at room temperature for 40 minutes. The Abl solution was prepared using a kinase buffer (20 mM MOPS pH 7.0, 1 mM EDTA, 0.1% β-mercaptoethanol, 0.01% Brij-35, 5% glycerol, 1 mg/ml BSA). The substrate peptide solution and the ATP mixture were prepared using 8 mM MOPS pH 7.0 and 0.2 mM
EDTA. The test substance solution was made by dissolving the test substance in DMSO at each concentration. The final concentration of DMSO was 1%. The reaction was terminated by adding 100 μl of a 100 mM phosphoric acid solution as a reaction terminator. Then, the total reaction solution was transferred to a 96-well MultiScreen plate (Millipore) and washed with 200 μl of 100 mM phosphoric acid three times. After drying, 20 μl of MicroScint-O (PerkinElmer) was added and the radioactivity was measured by TopCount (PerkinElmer). After subtracting the radioactivity in the well to which the Abltide substrate peptide was not added from each radioactivity, the ratio of the radioactivity when the test substance was added to the radioactivity when the test substance was not added was determined. The IC50 value was calculated from the inhibition rate at each concentration and used as an index of inhibitory activity.

[3] = target: T2, Syk (Homo sapiens, UniProt P43405); test: Syk inhibition test; assay type: biochemical; conditions: poly(L-glu-L-tyr) substrate, ATP 5 μM, [γ-33P]ATP, 30 minutes room temperature; read-out: Syk inhibitory activity IC50
T2 construct: purchased Wako Pure Chemical Industries
Procedure: 10 ng/10 μl/well of a Syk (Wako Pure Chemical Industries) solution, 15 μl of a poly(L-glu-L-tyr) substrate peptide solution (Sigma, final concentration 5 μM), 20 μl of an ATP mixture (ATP: Oriental Yeast, final concentration 5 μM, [γ-33P]ATP: GE Healthcare Biosciences, 0.1 μCi/well) and 5 μl of a test substance solution were added to a 96-well Corning reaction plate, followed by incubation at room temperature for 30 minutes. An assay buffer containing 50 mM Tris pH 7.5, 10 mM MgCl2, 0.1 mM Na3VO4, 1 mM DTT, 0.01% CHAPS and 100 μg/ml BSA was used. The test substance solution was made by dissolving the test substance in DMSO at each concentration. The final concentration of DMSO was 1%. The reaction was terminated by adding 100 μl of a 120 mM phosphoric acid solution as a reaction terminator. Then, the total reaction solution was transferred to MultiScreen (Millipore) and washed with 200 μl of 100 mM phosphoric acid four times.
After drying, 20 μl of MicroScint-O (PerkinElmer) was added and the radioactivity was measured by TopCount (PerkinElmer). The ratio of the radioactivity when the test substance was added to the radioactivity when the test substance was not added was determined. The IC50 value was calculated from the inhibition rate at each concentration and used as an index of inhibitory activity.

T1 sequence (P00519 whole entry, species assumed): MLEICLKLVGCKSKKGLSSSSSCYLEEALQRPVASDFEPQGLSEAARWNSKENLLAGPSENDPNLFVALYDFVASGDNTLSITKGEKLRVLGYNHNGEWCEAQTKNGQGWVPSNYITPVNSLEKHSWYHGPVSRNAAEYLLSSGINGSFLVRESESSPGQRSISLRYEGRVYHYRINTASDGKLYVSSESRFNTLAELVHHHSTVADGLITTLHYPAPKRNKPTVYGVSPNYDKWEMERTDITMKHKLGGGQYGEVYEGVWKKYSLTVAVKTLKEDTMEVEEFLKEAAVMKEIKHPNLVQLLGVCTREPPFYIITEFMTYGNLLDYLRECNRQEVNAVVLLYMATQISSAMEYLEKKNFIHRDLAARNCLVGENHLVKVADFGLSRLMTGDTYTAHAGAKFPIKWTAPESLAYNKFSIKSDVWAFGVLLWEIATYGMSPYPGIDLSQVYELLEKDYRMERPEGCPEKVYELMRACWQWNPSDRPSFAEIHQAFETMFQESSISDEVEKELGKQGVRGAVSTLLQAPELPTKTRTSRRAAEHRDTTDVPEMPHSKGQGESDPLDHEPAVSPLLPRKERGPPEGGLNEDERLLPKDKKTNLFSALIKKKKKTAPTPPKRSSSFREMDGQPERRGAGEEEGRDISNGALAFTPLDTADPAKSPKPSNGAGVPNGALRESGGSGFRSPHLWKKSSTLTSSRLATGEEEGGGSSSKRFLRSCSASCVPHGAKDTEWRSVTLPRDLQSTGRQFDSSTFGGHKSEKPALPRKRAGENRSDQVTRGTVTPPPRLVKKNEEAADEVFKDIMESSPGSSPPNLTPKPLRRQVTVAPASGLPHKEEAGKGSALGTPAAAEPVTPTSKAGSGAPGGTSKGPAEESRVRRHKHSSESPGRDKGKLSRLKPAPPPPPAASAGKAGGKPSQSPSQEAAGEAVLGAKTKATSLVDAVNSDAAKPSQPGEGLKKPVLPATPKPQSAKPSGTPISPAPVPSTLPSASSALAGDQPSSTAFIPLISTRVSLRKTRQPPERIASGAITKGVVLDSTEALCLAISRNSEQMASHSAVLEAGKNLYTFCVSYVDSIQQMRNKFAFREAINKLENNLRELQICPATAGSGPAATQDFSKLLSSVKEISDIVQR

| SMILES | IC50 [1] [µM] | IC50 [2] [µM] | IC50 [3] [µM] |
| --- | --- | --- | --- |
| C[S+]([O-])c1n[nH]c2nc(Nc3ccc(N4CCOCC4)cc3)nc(NC3CC3)c12 (stereo not shown) [Compound 4, N^4-Cyclopropyl-3-(methylsulfinyl)-N^6-(4-morpholin-4-ylphenyl)-1H-pyrazolo[3,4-d]pyrimidine-4,6-diamine] | ≤ 0.1 | – | – |
| CSc1n[nH]c2nc(Nc3ccc(N4CCOCC4)cc3)nc(NC3CC3)c12 [Compound 13, N^4-Cyclopropyl-3-(methylsulfanyl)-N^6-(4-morpholin-4-ylphenyl)-1H-pyrazolo[3,4-d]pyrimidine-4,6-diamine] | ≤ 0.1 | – | – |
| CS(=O)(=O)c1n[nH]c2nc(Nc3ccc4[nH]cnc4c3)nc(NC3CC3)c12 [Compound 21] | – | ≤ 0.05 | – |
| Cc1cc(Nc2nc(NC3CC3)c3c(S(C)(=O)=O)n[nH]c3n2)ccc1N1CCOCC1 [Compound 38] | – | ≤ 0.05 | – |
| CC(C)(C)Nc1nc(Nc2ccc(N3CCOCC3)cc2)nc2[nH]nc(S(C)(=O)=O)c12 [Compound 55] | – | ≤ 0.01 | – |
| CS(=O)(=O)c1n[nH]c2nc(Nc3ccc(N4CCOCC4)cc3)nc(NCCCC(N)=O)c12 [Compound 60] | – | ≤ 0.05 | – |
| CS(=O)(=O)c1n[nH]c2nc(Nc3ccc(N4CCNCC4)cc3)nc(NC3CC3)c12 [Compound 74] | ≤ 0.1 | ≤ 0.01 | ≤ 0.2 |
| CS(=O)(=O)c1n[nH]c2nc(Nc3ccc(N4CCCC(O)C4)cc3)nc(NC3CC3)c12 (stereo not shown) [Compound 78] | – | ≤ 0.01 | – |
| CS(=O)(=O)c1n[nH]c2nc(Nc3ccc(N4CCC(=O)CC4)cc3)nc(NC3CC3)c12 [Compound 88] | ≤ 0.1 | – | – |
| CSc1n[nH]c2nc(Nc3ccc(N4CCOCC4)cc3)nc(NCCCCN)c12 [Compound 102] | ≤ 0.1 | ≤ 0.05 | ≤ 0.2 |
| CS(=O)(=O)c1n[nH]c2nc(Nc3ccc(N4CCOCC4)cc3)nc(NC3CCCC3)c12 [Compound 103] | – | ≤ 0.05 | – |
| CS(=O)(=O)c1n[nH]c2nc(Nc3ccc(N4CCOCC4)cc3)nc(NCCCCN)c12 [Compound 107] | ≤ 0.1 | ≤ 0.05 | ≤ 0.2 |
| CCSc1n[nH]c2nc(Nc3ccc(N4CCOCC4)cc3)nc(NC3CC3)c12 [Compound 108] | – | ≤ 0.05 | – |
| CSc1n[nH]c2nc(Nc3ccc(N4CCOCC4)cc3)nc(NCCCCCN)c12 [Compound 110] | – | ≤ 0.05 | – |
| CSc1n[nH]c2nc(Nc3ccc(N4CCOCC4)cc3)nc(N[C@H]3CC[C@@H](N)CC3)c12 [Compound 112] | 0.019 | ≤ 0.01 | 0.02 |
| CCSc1n[nH]c2nc(Nc3ccc(N4CCOCC4)cc3)nc(NCCCCN)c12 [Compound 114] | – | ≤ 0.05 | ≤ 0.2 |
| CCSc1n[nH]c2nc(Nc3ccc(N4CCOCC4)cc3)nc(N[C@H]3CC[C@H](N)CC3)c12 [Compound 115] | – | ≤ 0.01 | ≤ 0.2 |
| CNCCCCNc1nc(Nc2ccc(N3CCOCC3)cc2)nc2[nH]nc(SC)c12 [Compound 116] | – | ≤ 0.05 | – |
| CS(=O)(=O)c1n[nH]c2nc(Nc3ccc(N4CCOCC4)cc3)nc(N[C@H]3CC[C@@H](N)CC3)c12 [Compound 117, N^4-(cis-4-Aminocyclohexyl)-3-(methylsulfonyl)-N^6-(4-morpholin-4-ylphenyl)-1H-pyrazolo[3,4-d]pyrimidine-4,6-diamine] | – | ≤ 0.01 | – |
| CC(C)Sc1n[nH]c2nc(Nc3ccc(N4CCOCC4)cc3)nc(N[C@H]3CC[C@@H](N)CC3)c12 [Compound 119] | – | ≤ 0.01 | – |

| SMILES | IC50 [1] [µM] | IC50 [2] [µM] | IC50 [3] [µM] |
| --- | --- | --- | --- |
| CS(=O)(=O)c1n[nH]c2nc(Nc3ccc(N4CCC(CO)CC4)cc3)nc(NC3CC3)c12 [Compound 126] | – | ≤ 0.01 | – |
| CN(C)C(=O)C1CCN(c2ccc(Nc3nc(NC4CC4)c4c(S(C)(=O)=O)n[nH]c4n3)cc2)CC1 [Compound 128] | ≤ 0.1 | ≤ 0.05 | ≤ 0.2 |
| CS(=O)(=O)c1n[nH]c2nc(Nc3ccc(N4CCCC(CO)C4)cc3)nc(NC3CC3)c12 (stereo not shown) [Compound 130] | ≤ 0.1 | ≤ 0.01 | ≤ 0.2 |
| CN1CCN(c2ccc(Nc3nc(NC4CC4)c4c(S(C)(=O)=O)n[nH]c4n3)cc2)CC1 [Compound 131, N^4-Cyclopropyl-N^6-[4-(4-methylpiperazin-1-yl)phenyl]-3-(methylsulfonyl)-1H-pyrazolo[3,4-d]pyrimidine-4,6-diamine] | ≤ 0.1 | ≤ 0.01 | ≤ 0.2 |
| CS(=O)(=O)c1n[nH]c2nc(Nc3ccc(N4CCCC(C(N)=O)C4)cc3)nc(NC3CC3)c12 (stereo not shown) [Compound 132] | – | ≤ 0.01 | – |
| CS(=O)(=O)c1n[nH]c2nc(Nc3ccc(N4CCS(=O)(=O)CC4)cc3)nc(NC3CC3)c12 [Compound 134] | ≤ 0.1 | ≤ 0.01 | ≤ 0.2 |
| CCN1CCN(c2ccc(Nc3nc(NC4CC4)c4c(S(C)(=O)=O)n[nH]c4n3)cc2)CC1 [Compound 135] | ≤ 0.1 | – | ≤ 0.2 |
| CC(C)N1CCN(c2ccc(Nc3nc(NC4CC4)c4c(S(C)(=O)=O)n[nH]c4n3)cc2)CC1 [Compound 138] | ≤ 0.1 | – | ≤ 0.2 |
| CS(=O)(=O)c1n[nH]c2nc(Nc3ccc(N4CCN(S(C)(=O)=O)CC4)cc3)nc(NC3CC3)c12 [Compound 146] | – | ≤ 0.01 | ≤ 0.2 |
| CNC(=O)COc1cccc(Nc2nc(NC3CC3)c3c(S(C)(=O)=O)n[nH]c3n2)c1 [Compound 150] | – | ≤ 0.05 | – |
| CNS(=O)(=O)c1ccc(Nc2nc(NC3CC3)c3c(S(C)(=O)=O)n[nH]c3n2)cc1 [Compound 152] | – | ≤ 0.01 | – |
| CS(=O)(=O)c1n[nH]c2nc(Nc3ccc(N4CCOCC4)cc3)nc(Nc3ccccc3C(N)=O)c12 [Compound 188] | – | ≤ 0.05 | – |
| CSc1n[nH]c2nc(Nc3ccc(N4CCOCC4)cc3)nc(Nc3ccc4nc[nH]c4c3)c12 [Compound 192] | – | ≤ 0.05 | – |
| CSc1n[nH]c2nc(Nc3ccc(N4CCOCC4)cc3)nc(NCCc3c[nH]cn3)c12 [Compound 200] | – | ≤ 0.01 | – |
| CSc1n[nH]c2nc(Nc3ccc(N4CCOCC4)cc3)nc(Nc3ccc4cn[nH]c4c3)c12 [Compound 206] | – | ≤ 0.05 | – |
| CSc1n[nH]c2nc(Nc3ccc(N4CCOCC4)cc3)nc(Nc3ccc4[nH]c(O)nc4c3)c12 [Compound 208] | – | ≤ 0.05 | – |
| N[C@H]1CC[C@@H](Nc2nc(Nc3ccc(N4CCOCC4)cc3)nc3[nH]ncc23)CC1 [Compound 216, N^4-(cis-4-Aminocyclohexyl)-N^6-(4-morpholinophenyl)-1H-pyrazolo[3,4-d]pyrimidine-4,6-diamine] | – | ≤ 0.01 | – |
| N[C@H]1CC[C@@H](Oc2nc(Nc3ccc(N4CCOCC4)cc3)nc3[nH]ncc23)CC1 [Compound 217, cis-4-(4-Aminocyclohexyloxy)-N-(4-morpholinophenyl)-1H-pyrazolo[3,4-d]pyrimidin-6-amine] | – | ≤ 0.01 | – |
| CS(=O)(=O)c1n[nH]c2nc(Nc3ccc(-c4ccc(C(=O)O)cc4)cc3)nc(NC3CC3)c12 [Compound 227] | – | ≤ 0.05 | – |
| CC1CN(C(=O)c2ccc(Nc3nc(NC4CC4)c4c(S(C)(=O)=O)n[nH]c4n3)cc2)CC(C)O1 (stereo not shown) [Compound 240] | – | ≤ 0.05 | – |
